Measurements: US8883782B2, “Spiro-tetracyclic ring compounds as beta-secretase modulators and methods of use” (Amgen Inc., priority 2010, dated 2014)

Tests used:
[1] = molecular target: Beta Secretase enzyme (BACE) (Homo sapiens, UniProt P56817); assay: In vitro enzymatic BACE FRET (fluorescence resonance energy transfer) assay; assay type: biochemical; details: average IC50, enzyme assay; read-out: BACE 1 FRET assay
Method in brief: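 Fluorescence read after Tris quench (pH raised to neutrality) of a one-hour BACE reaction. Buffer: acetate 0.05 M, pH 4.2, with 100 uM genapol and 10% DMSO final; started by adding 50 nM FRET peptide substrate spanning the cleavage site.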

[2] = system: Aβ40 in conditioned medium of cells stably expressing Amyloid Precursor Protein (APP); assay: In vitro BACE cell-based assay (Aβ40 in conditioned medium, sandwich ELISA); details: Homo sapiens, HEK293, average IC50; read-out: HEK cell assay
Description: In Vitro BACE Cell-Based Assay
The cell-based assay measures inhibition or reduction of Aβ40 in conditioned medium of test compound treated cells expressing amyloid precursor protein.
Cells stably expressing Amyloid Precursor Protein (APP) were plated at a density of 40K cells/well in 96 well plates (Costar). The cells were cultivated for 24 hours at 37° C. and 5% CO2 in DMEM supplemented with 10% FBS. The test compounds were then added to cells in 10-point dose response concentrations with the starting concentration being either 100 μM or 10 μM. The compounds were diluted from stock solutions in DMSO and the final DMSO concentration of the test compounds on cells was 0.1%. […] The IC50 of the compound was calculated from the percent of control or percent inhibition of Aβ 40 as a function of the concentration of the test compound.
The sandwich ELISA to detect Aβ 40 was performed in 96 well microtiter plates, which were pre-treated with goat anti-rabbit IgG (Pierce). The capture and detecting antibody pair that were used to detect Aβ 40 from cell supernatants were affinity purified pAb40 (Biosource) and biotinylated 6E10 (Signet Labs Inc.), respectively. The optimal concentration for the pAb40 antibody was 3 μg/ml in Superblock/TBS (Pierce) that was supplemented with 0.05% Tween 20 (Sigma).
Cellular supernatants were incubated with the capture antibody for 3 h at 4° C., followed by 3 wash steps in TBS-tween (0.05%). The detecting antibody incubation was for 2 h at 4° C., again followed by the wash steps as described previously. The final readout of the ELISA is Time-Resolved Fluorescence (counts per minute) using Delfia reagents Streptavidin-Europium and Enhancement solutions (Perkin Elmer) and the Victor 2 multilabel counter (Perkin Elmer).

Beta Secretase enzyme (BACE), sequence (P56817 46-501, species assumed): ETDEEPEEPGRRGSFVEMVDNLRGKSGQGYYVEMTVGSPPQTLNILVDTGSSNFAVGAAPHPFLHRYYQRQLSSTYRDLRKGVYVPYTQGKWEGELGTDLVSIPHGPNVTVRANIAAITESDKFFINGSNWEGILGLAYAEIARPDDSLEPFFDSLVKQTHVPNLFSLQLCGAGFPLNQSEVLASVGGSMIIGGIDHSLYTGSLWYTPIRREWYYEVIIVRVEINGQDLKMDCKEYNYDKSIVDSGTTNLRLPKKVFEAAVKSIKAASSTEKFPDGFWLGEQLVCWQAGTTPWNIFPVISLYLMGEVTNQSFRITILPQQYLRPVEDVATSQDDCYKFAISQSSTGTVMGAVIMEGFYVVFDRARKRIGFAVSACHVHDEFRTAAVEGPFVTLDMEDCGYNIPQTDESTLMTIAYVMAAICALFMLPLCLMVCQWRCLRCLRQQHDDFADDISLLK

| IC50 [1] [µM] | IC50 [2] [µM] | SMILES |
| --- | --- | --- |
| 0.0223 | 0.124 | NC1=NC2(CO1)c1cc(-c3cccnc3F)ccc1Oc1nc(F)c(-c3cccnc3F)cc12 (stereo not shown) [Example 147, 2-fluoro-3,7-bis(2-fluoro-3-pyridinyl)spiro[chromeno[2,3-b]pyridine-5,4′-[1,3]oxazol]-2′-amine] |
| 0.0007 | 0.0214 | CC(C)(C)C#Cc1cc2c(nc1F)Oc1ccc(-c3cccnc3F)cc1C21COC(N)=N1 (stereo not shown) [Example 148, 3-(3,3-dimethyl-1-butyn-1-yl)-2-fluoro-7-(2-fluoro-3-pyridinyl)spiro[chromeno[2,3-b]pyridine-5,4′-[1,3]oxazol]-2′-amine] |
| 0.0008 | 0.0076 | CC1(C#Cc2cc3c(nc2F)Oc2ccc(-c4cccnc4F)cc2C32COC(N)=N2)COC1 (stereo not shown) [Example 149, 2-fluoro-7-(2-fluoro-3-pyridinyl)-3-((3-methyl-3-oxetanyl)ethynyl)spiro[chromeno[2,3-b]pyridine-5,4′-[1,3]oxazol]-2′-amine] |
| 0.0026 | 0.0482 | NC1=NC2(CO1)c1cc(-c3cccnc3F)ccc1Oc1nc(F)c(C3=CCOCC3)cc12 (stereo not shown) [Example 150, 3-(3,6-dihydro-2H-pyran-4-yl)-2-fluoro-7-(2-fluoro-3-pyridinyl)spiro[chromeno[2,3-b]pyridine-5,4′-[1,3]oxazol]-2′-amine] |
| 0.0013 | 0.0508 | NC1=NC2(CO1)c1cc(-c3cccnc3F)ccc1Oc1nc(F)c(-c3ccnc(F)c3)cc12 (stereo not shown) [Example 151, 2-fluoro-7-(2-fluoro-3-pyridinyl)-3-(2-fluoro-4-pyridinyl)spiro[chromeno[2,3-b]pyridine-5,4′-[1,3]oxazol]-2′-amine] |
| 0.0092 | 0.0462 | CC1(C#Cc2cc3c(cn2)Oc2ccc(-c4cncc(F)c4)cc2[C@@]32COC(N)=N2)COC1 [Example 153, (5S)-7-(5-fluoro-3-pyridinyl)-3-((3-methyl-3-oxetanyl)ethynyl)spiro[chromeno[2,3-c]pyridine-5,4′-[1,3]oxazol]-2′-amine] |
| 0.0014 | 0.0065 | CC1(C#Cc2cc3c(cn2)Oc2ccc(-c4cccnc4)cc2[C@@]32COC(N)=N2)COC1 [Example 154, (5S)-3-((3-methyl-3-oxetanyl)ethynyl)-7-(3-pyridinyl)spiro[chromeno[2,3-c]pyridine-5,4′-[1,3]oxazol]-2′-amine] |
| 0.0173 | 0.173 | CC1(C#Cc2cc3c(cn2)Oc2ccc(-c4ccccc4)cc2[C@@]32COC(N)=N2)COC1 [Example 155, (5S)-3-((3-methyl-3-oxetanyl)ethynyl)-7-phenylspiro[chromeno[2,3-c]pyridine-5,4′-[1,3]oxazol]-2′-amine] |
| 0.0109 | 0.0459 | CC1(C#Cc2cc3c(cn2)Oc2ccc(-c4ccc(F)nc4)cc2[C@@]32COC(N)=N2)COC1 [Example 156, (5S)-7-(6-fluoro-3-pyridinyl)-3-((3-methyl-3-oxetanyl)ethynyl)spiro[chromeno[2,3-c]pyridine-5,4′-[1,3]oxazol]-2′-amine] |
| 0.0008 | 0.0302 | CC1(C#Cc2cc3c(cn2)Oc2ccc(-c4cccc(Cl)c4)cc2[C@@]32COC(N)=N2)COC1 [Example 157, (5S)-7-(3-chlorophenyl)-3-((3-methyl-3-oxetanyl)ethynyl)spiro[chromeno[2,3-c]pyridine-5,4′-[1,3]oxazol]-2′-amine] |
| 0.001 | 0.0116 | CC1(C#Cc2cc3c(cn2)Oc2ccc(-c4cc(Cl)cnc4F)cc2[C@@]32COC(N)=N2)COC1 [Example 158, (5S)-7-(5-chloro-2-fluoro-3-pyridinyl)-3-((3-methyl-3-oxetanyl)ethynyl)spiro[chromeno[2,3-c]pyridine-5,4′-[1,3]oxazol]-2′-amine] |
| 0.0049 | 0.084 | NC1=N[C@@]2(CO1)c1cc(C#CC3CC3)ccc1Oc1cnc(C3=CCOCC3)cc12 [Example 159, (5S)-7-(cyclopropylethynyl)-3-(3,6-dihydro-2H-pyran-4-yl)spiro[chromeno[2,3-c]pyridine-5,4′-[1,3]oxazol]-2′-amine] |
| 0.022 | 0.091 | CC1(C#Cc2ccc3c(c2)[C@@]2(COC(N)=N2)c2cc(C4=CCOCC4)ncc2O3)COC1 [Example 160, (5S)-3-(3,6-dihydro-2H-pyran-4-yl)-7-((3-methyl-3-oxetanyl)ethynyl)spiro[chromeno[2,3-c]pyridine-5,4′-[1,3]oxazol]-2′-amine] |
| 0.0097 | 0.108 | CC(C)(C)C#Cc1ccc2c(c1)[C@@]1(COC(N)=N1)c1cc(C3=CCOCC3)ncc1O2 [Example 161, (5S)-3-(3,6-dihydro-2H-pyran-4-yl)-7-(3,3-dimethyl-1-butyn-1-yl)spiro[chromeno[2,3-c]pyridine-5,4′-[1,3]oxazol]-2′-amine] |
| 0.023 | 0.775 | CC(C)(C)C#Cc1ccc2c(c1)[C@@]1(COC(N)=N1)c1cc(-c3ccnc(F)c3)ncc1O2 [Example 162, (5S)-7-(3,3-dimethyl-1-butyn-1-yl)-3-(2-fluoro-4-pyridinyl)spiro[chromeno[2,3-c]pyridine-5,4′-[1,3]oxazol]-2′-amine] |
| 0.0174 | 0.124 | CC1(C#Cc2ccc3c(c2)[C@@]2(COC(N)=N2)c2cc(N4CCC(F)(F)C4)ncc2O3)COC1 [Example 163, (5S)-3-(3,3-difluoro-1-pyrrolidinyl)-7-((3-methyl-3-oxetanyl)ethynyl)spiro[chromeno[2,3-c]pyridine-5,4′-[1,3]oxazol]-2′-amine] |
| 0.0023 | 0.0189 | CC1(C#Cc2cc3c(cn2)Oc2ccc(-c4cccc(C#N)c4)cc2[C@@]32COC(N)=N2)COC1 [Example 164, 3-((5S)-2′-amino-3-((3-methyl-3-oxetanyl)ethynyl)spiro[chromeno[2,3-c]pyridine-5,4′-[1,3]oxazol]-7-yl)benzonitrile] |
| 0.0018 | 0.0177 | NC1=N[C@@]2(CO1)c1cc(-c3cccc(Cl)c3)ccc1Oc1ncc(-c3cnccn3)cc12 [Example 166, (5S)-7-(3-chlorophenyl)-3-(2-pyrazinyl)spiro[chromeno[2,3-b]pyridine-5,4′-[1,3]oxazol]-2′-amine] |
| 0.0026 | 0.0139 | CC1(C#Cc2cnc3c(c2)[C@]2(COC(N)=N2)c2cc(-c4ccc(F)nc4)ccc2O3)COC1 [Example 167, (5S)-7-(6-fluoro-3-pyridinyl)-3-((3-methyl-3-oxetanyl)ethynyl)spiro[chromeno[2,3-b]pyridine-5,4′-[1,3]oxazol]-2′-amine] |
| 0.0033 | 0.0145 | CC1(C#Cc2cnc3c(c2)[C@]2(COC(N)=N2)c2cc(-c4cnccn4)ccc2O3)COC1 [Example 168, (5S)-3-((3-methyl-3-oxetanyl)ethynyl)-7-(2-pyrazinyl)spiro[chromeno[2,3-b]pyridine-5,4′-[1,3]oxazol]-2′-amine] |
| 0.0013 | 0.0045 | N#Cc1cccc(-c2ccc3c(c2)[C@@]2(COC(N)=N2)c2cc(C4=CCOCC4)cnc2O3)c1 [Example 169, 3-((5S)-2′-amino-3-(3,6-dihydro-2H-pyran-4-yl)spiro[chromeno[2,3-b]pyridine-5,4′-[1,3]oxazol]-7-yl)benzonitrile] |
| 0.0015 | 0.0183 | NC1=N[C@@]2(CO1)c1cc(-c3cccc(Cl)c3F)ccc1Oc1ncc(C3=CCOCC3)cc12 [Example 170, (5S)-7-(3-chloro-2-fluorophenyl)-3-(3,6-dihydro-2H-pyran-4-yl)spiro[chromeno[2,3-b]pyridine-5,4′-[1,3]oxazol]-2′-amine] |
| 0.0004 | 0.0053 | NC1=N[C@@]2(CO1)c1cc(-c3cc(Cl)ccc3F)ccc1Oc1ncc(C3=CCCOC3)cc12 [Example 172, (5S)-7-(5-chloro-2-fluorophenyl)-3-(5,6-dihydro-2H-pyran-3-yl)spiro[chromeno[2,3-b]pyridine-5,4′-[1,3]oxazol]-2′-amine] |
| 0.0006 | 0.005 | NC1=N[C@@]2(CO1)c1cc(-c3cccc(Cl)c3)ccc1Oc1ncc(C3=CCCOC3)cc12 [Example 173, (5S)-7-(3-chlorophenyl)-3-(5,6-dihydro-2H-pyran-3-yl)spiro[chromeno[2,3-b]pyridine-5,4′-[1,3]oxazol]-2′-amine] |
| 0.0121 | 0.04 | NC1=N[C@@]2(CO1)c1cc(-c3cccnc3F)ccc1Oc1ncc([C@@H]3CCCOC3)cc12 [Example 174, (5S)-7-(2-fluoro-3-pyridinyl)-3-((3S)-tetrahydro-2H-pyran-3-yl)spiro[chromeno[2,3-b]pyridine-5,4′-[1,3]oxazol]-2′-amine] |
| 0.0005 | 0.001 | CC1(/C=C/c2cnc3c(c2)[C@]2(COC(N)=N2)c2cc(-c4cccnc4F)ccc2O3)COC1 [Example 175, (5S)-7-(2-fluoro-3-pyridinyl)-3-((E)-2-(3-methyl-3-oxetanyl)ethenyl)spiro[chromeno[2,3-b]pyridine-5,4′-[1,3]oxazol]-2′-amine] |
